The record followed here is patent US6566363B2, “Pyrazole-thiazole compounds, pharmaceutical compositions containing them” (Agouron Pharmaceuticals, Inc., priority 2000, dated 2003).

Counter-ions that a name gives are not always drawn.

The target in one assay is T1, CDK4/cyclin D3 (Homo sapiens, UniProt P11802).
T1 construct: made in house; host or cells: insect cells co-infected with baculovirus expression vectors
Nature of the assay: Inhibition of CDK4/Cyclin D retinoblastoma kinase activity. In kind it is biochemical. The settings on record: for Ki: apparent Ki, Rb fragment substrate, 25 μM ATP. The protocol:
(§1) Cyclin-dependent kinase activity was measured by quantifying the enzyme-catalyzed, time-dependent incorporation of radioactive phosphate from [^32P]ATP or [^33P]ATP into a protein substrate. […] Reactions were initiated with enzyme, incubated at 30° C., and terminated after 20 minutes by the addition of ethylenediaminetetraacetic acid (EDTA) to 250 mM. […] Radioactivity was quantified by exposing the dried membranes to a phosphorimager.
(§2) Apparent Ki values were measured by assaying enzyme activity in the presence of different inhibitor compound concentrations and subtracting the background radioactivity measured in the absence of enzyme.
Phosphorylated Rb substrate was captured by microfiltration on a nitrocellulose membrane and quantified using a phosphorimager as described above. For measurement of tight-binding inhibitors, the enzyme complex concentration was lowered to 5 nM, and the assay duration was extended to 60 minutes, during which the time-dependence of product formation was linear.

The target of the next assay is T2, CDK2/cyclin A (Homo sapiens, UniProt P24941).
T2 construct: made in house; host or cells: CDK2: insect cells (baculovirus); cyclin A: E. coli, then limited proteolysis
The assay can be described thus: Inhibition of CDK2/Cyclin A retinoblastoma kinase activity. Type of assay: biochemical. The settings on record: for Ki: apparent Ki, Rb fragment substrate, 25 μM ATP. The protocol: as §1, §2
A complex of CDK2 and proteolyzed cyclin A was prepared and purified by gel filtration. […] Ki values were measured as described above.

In another assay the test system is HCT 116 cell line. The assay can be described thus: Inhibition of cell growth, MTT tetrazolium salt assay. Type of assay: cell-based. The method, then: Inhibition of cell growth was measured using the tetrazolium salt assay, which is based on the ability of viable cells to reduce 3-(4,5-dimethylthiazol-2-yl)-2,5-[2H]-diphenyltetrazolium bromide (MTT) to formazan (Mossman, Journal of Immunological Methods, vol. 65 (1983), pp. 55-58). The water-insoluble purple formazan product was then detected spectrophotometrically. The HCT 116 cell line was grown in 96-well plates. Cells were plated in the appropriate medium at a volume of 135 μl/well in McCoy's 5A Medium. Plates were incubated for four hours before addition of inhibitor compounds. Different concentrations of inhibitor compounds were added in 0.5% (v/v) dimethylsulfoxide (15 μL/well), and cells were incubated at 37° C. (5% CO2) for four to six days (depending on cell type). At the end of the incubation, MTT was added to a final concentration of 0.2 mg/mL, and cells were incubated for 4 hours more at 37° C. After centrifugation of the plates and removal of medium, the absorbence of the formazan (solubilized in dimethylsulfoxide) was measured at 540 nm. The concentration of inhibitor compound causing 50% inhibition of growth was determined from the linear portion of a semi-log plot of inhibitor concentration versus percentage inhibition. All results were compared to control cells treated only with 0.5% (v/v) dimethylsulfoxide.
(In general: Tetrazolium dyes change colour on reduction, which living cells bring about.)

T1 sequence (P11802 whole entry): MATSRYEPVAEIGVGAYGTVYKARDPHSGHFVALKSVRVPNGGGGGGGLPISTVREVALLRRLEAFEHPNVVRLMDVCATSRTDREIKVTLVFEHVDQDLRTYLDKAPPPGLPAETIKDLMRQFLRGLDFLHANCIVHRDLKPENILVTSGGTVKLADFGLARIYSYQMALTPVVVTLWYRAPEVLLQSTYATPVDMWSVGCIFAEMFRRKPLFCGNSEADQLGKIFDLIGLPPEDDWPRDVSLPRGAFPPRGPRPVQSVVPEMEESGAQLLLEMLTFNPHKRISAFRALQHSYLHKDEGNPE
T1 sequence (P30281 whole entry partner): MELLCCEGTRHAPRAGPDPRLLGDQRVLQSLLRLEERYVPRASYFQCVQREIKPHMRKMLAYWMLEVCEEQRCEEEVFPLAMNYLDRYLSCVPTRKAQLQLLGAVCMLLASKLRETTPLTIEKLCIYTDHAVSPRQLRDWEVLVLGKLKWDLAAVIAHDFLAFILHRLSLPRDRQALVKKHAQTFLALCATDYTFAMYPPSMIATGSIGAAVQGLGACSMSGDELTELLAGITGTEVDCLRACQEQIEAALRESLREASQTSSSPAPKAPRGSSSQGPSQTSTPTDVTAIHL

`COc1ccc(Nc2nc3[nH]nc(-c4ccccc4)c3s2)cc1` [Compound 1, 5-(4-Methoxyphenylamino)-3-phenyl-1H-pyrazolo[4,5-d]thiazole Hydrobromic Acid Salt]: the figures for the Ki on CDK4/cyclin D3 and at CDK2/cyclin A were 1600 nM and 1000 nM, respectively.
Regarding `CN1CCN(c2ccc(Nc3nc4[nH]nc(-c5ccccc5)c4s3)cc2)CC1` [Compound 4, 5-[4-(4-Methyl-piperazin-1-yl)-phenylamino]-3-phenyl-1H-pyrazolo[4,5-d]thiazole Hydrobromic Acid Salt], the Ki on CDK4/cyclin D3 was found to be 170 nM; at CDK2/cyclin A, 1600 nM.
A word on the IC50: it is the concentration that gives 50% inhibition. For the compound `NS(=O)(=O)c1ccc(Nc2nc3[nH]nc(-c4ccccc4)c3s2)cc1` [Compound 2, 3-Phenyl-5-(4-sulfonamidophenylamino)-1H-pyrazolo[4,5-d]thiazole Hydrobromic Acid Salt], the Ki at CDK4/cyclin D3 was found to be 390 nM; at CDK2/cyclin A, 34 nM. In addition, the half-inhibitory concentration (IC50) in the assay with HCT 116 cell line (Homo sapiens, 144 h, HCT 116 cells, MTT, four to six days, read-out: IC50 HCT116) is over 25000 nM.
As to `NS(=O)(=O)c1ccc(Nc2nc3[nH]nc(-c4c(F)cccc4F)c3s2)cc1` [Compound 3, 3-(2,6-Difluorophenyl)-5-(4-sulfonamidophenylamino)-1H-pyrazolo [4,5-d]thiazole], at CDK4/cyclin D3 (@ 1 μm), the “inhibition of CDK4/D3 (entry in Ki column)” value was 18% @ 1 μm. The “inhibition of HCT116 growth (entry in IC50 column)” value in the assay with HCT 116 cell line (@ 25 μm) stood at 16% @ 25 μm. Besides, the “inhibition of CDK2/A (entry in Ki column)” value against CDK2/cyclin A (@ 1 μm) was 41% @ 1 μm.
